Holding throughout (type): cell-based
For assay [1], the system named is SKBR3 (PI3Kα wild type) cells. In words: CellTiter-Glo 2.0 luminescent cell viability assay, 72 hours, SKBR3 cells. The conditions noted are these: Homo sapiens, SK-BR-3, 72 h. In short, it runs like this:
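Viability measured via CTG luminescence following roughly 72 hours of compound exposure at 37° C. Dosing used a 10 um starting concentration diluted 1:4 over 10 points; percent-of-vehicle data fitted with a variable-slope four-parameter model for IC50.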
Background: Cellular ATP, detected with luciferase, serves as a proxy for viable cell number.

Assay [2] deals with T47D (PI3Kα H1047R mutant) cells. In words: CellTiter-Glo 2.0 luminescent cell viability assay, 72 hours, T47D cells. The conditions noted are these: Homo sapiens, T47D, 72 h. In short, it runs like this:
(§1)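 Cells seeded at 1000 per well overnight were dosed with a 10-concentration, 1:4 series starting at 10 µM and incubated ~72 h at 37° C. Viability was read by CellTiter-Glo 2.0 luminescence after 30 min at room temperature. IC50 came from four-parameter fits of percent vehicle control.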

The test system of assay [3] is MKN1 (PI3Kα E545K mutant) cells. In words: CellTiter-Glo 2.0 luminescent cell viability assay, 72 hours, MKN1 cells. The conditions noted are these: Homo sapiens. In outline: as §1
For assay [4], the system named is T47D (PI3Kα H1047R mutant) cells. In words: Inhibition of pAKT formation, alphaLISA SureFire Ultra AKT 1/2/3 (pS473), T47D cells. The conditions noted are these: Homo sapiens, T47D. In short, it runs like this: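 T47D cells (12,000/well) in HBSS were dosed with compound at 10 concentrations (10.4 μM top, 1:4 dilutions) for about 1 h or 24 h at 37 °C, then lysed. pS473 AKT was read by alphaLISA. Signals were normalized to alpelisib and DMSO controls, and IC50 came from a four-parameter fit.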
In general terms: In Alpha technology, singlet oxygen from a donor bead excites a nearby acceptor bead.

In assay [5] the test system is MKN1 (PI3Kα E545K mutant) cells. In words: Inhibition of pAKT formation, alphaLISA SureFire Ultra AKT 1/2/3 (pS473), MKN1 cells. The conditions noted are these: Homo sapiens. In outline:
(§2)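 Cells seeded in HBSS (SKBR3 12,000/well, MKN1 24,000/well) and dosed immediately, 10-point 1:4 series from […], for about 1 h or 24 h at 37 °C. pAKT S473 by alphaLISA after lysis; signal normalised to alpelisib and DMSO controls, IC50 by four-parameter fit.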

The subject of assay [6] is SKBR3 (PI3Kα wild type) cells. In words: Inhibition of pAKT formation, alphaLISA SureFire Ultra AKT 1/2/3 (pS473), SKBR3 cells. To be noted: Homo sapiens, SK-BR-3; Inhibition of pAKT in SKBR3 (PI3Kα wild type) cells; read-out: SKBR3 (WT) pAKT IC50 (nM) (H1047R mutant) IC50. In short, it runs like this: as §2
The mark [7] stands for this setting: SKBR3 (PI3Kα wild type) cells, CellTiter-Glo, approximately 72 hours, read-out: SKBR3 (WT) Viability IC50.
Setting [8] is: T47D (PI3Kα H1047R mutant) cells, CellTiter-Glo, approximately 72 hours, read-out: T47D (H1047R mutant) Viability IC50.
[9] abbreviates: MKN-1, MKN1 (PI3Kα E545K mutant) cells, CellTiter-Glo, approximately 72 hours, read-out: MKN1 (E545K) Viability IC50.
Setting [10] is: T47D (PI3Kα H1047R mutant) cells, inhibition of pAKT (pS473) formation, approximately one hour or 24 hours treatment, read-out: T47D pAKT (H1047R mutant) IC50.
[11] abbreviates: MKN-1, MKN1 (PI3Kα E545K mutant) cells, inhibition of pAKT (pS473) formation, approximately one hour or 24 hours treatment, read-out: MKN1 (E545K) pAKT IC50.

Where only a bound is given, the exact number is not on record here.

Usually IC50 stands for the concentration needed to halve the response being measured. For `Cc1cc(C(C)Nc2ccccc2C(=O)O)c2nc(N3Cc4ccccc4C3)c(C)c(=O)n2c1` (stereo not drawn) [Example 5-9, 2-((1-(2-(isoindolin-2-yl)-3,7-dimethyl-4-oxo-4H-pyrido[1,2-a]pyrimidin-9-yl)ethyl)amino)benzoic acid], the IC50 in assay [1] (setting [7]) is greater than 10000 nM; in assay [2] (setting [8]) it was 430 nM; in assay [3] (setting [9]), greater than 10000 nM; in assay [4] (setting [10]), 21 nM; in assay [5] (setting [11]) it was 3500 nM; in assay [6], 683 nM.
As for `Cc1cc(C(C)Nc2ccccc2C(=O)O)c2nc(C3CC3)cc(=O)n2c1` (stereo not drawn) [6-2, 2-((1-(2-cyclopropyl-7-methyl-4-oxo-4H-pyrido[1,2-a]pyrimidin-9-yl)ethyl)amino)benzoic acid], the IC50 in assay [1] (setting [7]) is greater than 10000 nM; in assay [2] (setting [8]) it was greater than 10000 nM; in assay [3] (setting [9]) it was greater than 10000 nM; in assay [4] (setting [10]), 93.2 nM; in assay [5] (setting [11]) it was greater than 10000 nM; in assay [6] it was greater than 10000 nM.
Take `CNC(=O)c1ccccc1NC(C)c1cc(C)cn2c(=O)cc(N3CCCCC3)nc12` (stereo not drawn) [Example 3-14, N-methyl-2-((1-(7-methyl-4-oxo-2-(piperidin-1-yl)-4H-pyrido[1,2-a]pyrimidin-9-yl)ethyl)amino)benzamide]: the half-maximal inhibitory concentration (IC50) in assay [1] (setting [7]) was greater than 10000 nM; in assay [2] (setting [8]), 1360 nM; in assay [3] (setting [9]), greater than 10000 nM; in assay [4] (setting [10]), 4540 nM; in assay [5] (setting [11]), 2910 nM; in assay [6], greater than 10000 nM.
Consider `CCc1c(N2CCCCC2)nc2c(C(C)Nc3ccccc3C(=O)O)cc(C)cn2c1=O` (stereo not drawn) [Example 5-6, 2-((1-(3-ethyl-7-methyl-4-oxo-2-(piperidin-1-yl)-4H-pyrido[1,2-a]pyrimidin-9-yl)ethyl)amino)benzoic acid], for which the IC50 in assay [1] (setting [7]) is greater than 10000 nM; in assay [2] (setting [8]) it was 3800 nM; in assay [3] (setting [9]) it was greater than 10000 nM; in assay [4] (setting [10]) it was 28.1 nM; in assay [5] (setting [11]), 6520 nM; in assay [6] it was 9050 nM.
As to `CC(Nc1ccccc1C(=O)O)c1cc(C2CC2)cn2c(=O)cc(N3CCCCC3)nc12` (stereo not drawn) [Example 5-3, 2-((1-(7-cyclopropyl-4-oxo-2-(piperidin-1-yl)-4H-pyrido[1,2-a]pyrimidin-9-yl)ethyl)amino)benzoic acid], the IC50 is greater than 10000 nM in assay [1] (setting [7]); greater than 10000 nM in assay [2] (setting [8]); greater than 10000 nM in assay [3] (setting [9]); 32.1 nM in assay [4] (setting [10]); greater than 10000 nM in assay [5] (setting [11]); 3540 nM in assay [6].
Regarding `Cc1cc([C@H](C)Nc2ccccc2C(=O)O)c2nc(N3Cc4ccccc4C3)c(C)c(=O)n2c1` (single isomer, unassigned) [Example 5-9-1], the IC50 in assay [1] (setting [7]) is greater than 10000 nM; in assay [2] (setting [8]), 316 nM; in assay [3] (setting [9]) it was greater than 10000 nM; in assay [4] (setting [10]), 11.7 nM; in assay [5] (setting [11]), 271 nM; in assay [6] it was 4550 nM.
Consider `Cc1cc(C(C)Nc2ccccc2C(=O)O)c2nc(C)cc(=O)n2c1` (stereo not drawn) [Example 6-1, 2-((1-(2,7-dimethyl-4-oxo-4H-pyrido[1,2-a]pyrimidin-9-yl)ethyl)amino)benzoic acid], for which the IC50 in assay [1] (read-out: SKBR3 (WT) Viability IC50 (nM)) is greater than 10000 nM; in assay [2] (read-out: T47D (H1047R mutant) Viability IC50 (nM)), greater than 10000 nM; in assay [3] (MKN-1, 72 h, read-out: MKN1 (E545K) Viability IC50 (nM)), greater than 10000 nM; in assay [4] (read-out: T47D pAKT (H1047R mutant) IC50 (nM)) it was 3370 nM; in assay [5] (MKN-1, read-out: MKN1 (E545K) pAKT IC50 (nM)) it was greater than 10000 nM; in assay [6], greater than 10000 nM.
As for `Cc1cc(C(C)Nc2ccccc2C(=O)N(C)C)c2nc(N3CCCCC3)cc(=O)n2c1` (stereo not drawn) [Example 3-15, N,N-dimethyl-2-((1-(7-methyl-4-oxo-2-(piperidin-1-yl)-4H-pyrido[1,2-a]pyrimidin-9-yl)ethyl)amino)benzamide], the IC50 in assay [1] (setting [7]), in assay [2] (setting [8]), in assay [3] (setting [9]), in assay [4] (setting [10]), in assay [5] (setting [11]) and in assay [6] was greater than 10000 nM in each case.
Turning to `CC(Nc1ccccc1C(=O)O)c1cccn2c(=O)cc(N3Cc4ccccc4C3)nc12` (stereo not drawn) [9-4, 2-((1-(2-(isoindolin-2-yl)-4-oxo-4H-pyrido[1,2-a]pyrimidin-9-yl)ethyl)amino)benzoic acid], the IC50 was greater than 10000 nM in assay [1] (setting [7]); 9970 nM in assay [2] (setting [8]); greater than 10000 nM in assay [3] (setting [9]); 25.9 nM in assay [4] (setting [10]); greater than 10000 nM in assay [5] (setting [11]); greater than 10000 nM in assay [6].
On to `COc1cccc(NC(C)c2cc(C)cn3c(=O)cc(N4CCCCC4)nc23)c1C(=O)O` (stereo not drawn) [Example 3-3, 2-methoxy-6-((1-(7-methyl-4-oxo-2-(piperidin-1-yl)-4H-pyrido[1,2-a]pyrimidin-9-yl)ethyl)amino)benzoic acid], for which the IC50 in assay [1] (setting [7]) is greater than 10000 nM; in assay [2] (setting [8]), greater than 10000 nM; in assay [3] (setting [9]) it was greater than 10000 nM; in assay [4] (setting [10]), 2740 nM; in assay [5] (setting [11]) it was greater than 10000 nM; in assay [6], greater than 10000 nM.
For the compound `Cc1cc(C(C)Nc2cccc3cn[nH]c23)c2nc(N3CCCCC3)cc(=O)n2c1` (stereo not drawn) [Example 3-17, 9-(1-((1H-indazol-7-yl)amino)ethyl)-7-methyl-2-(piperidin-1-yl)-4H-pyrido[1,2-a]pyrimidin-4-one], the IC50 in assay [1] (setting [7]) is 9770 nM; in assay [2] (setting [8]), greater than 10000 nM; in assay [3] (setting [9]) it was greater than 10000 nM; in assay [4] (setting [10]), greater than 10000 nM; in assay [5] (setting [11]), greater than 10000 nM; in assay [6], greater than 10000 nM.
With `CC(Nc1ccccc1C(=O)O)c1cc(C(F)F)cn2c(=O)cc(N3CCCCC3)nc12` (stereo not drawn) [Example 5-7, 2-((1-(7-(difluoromethyl)-4-oxo-2-(piperidin-1-yl)-4H-pyrido[1,2-a]pyrimidin-9-yl)ethyl)amino)benzoic acid], the 50% inhibitory concentration (IC50) in assay [1] (setting [7]) is 2950 nM; in assay [2] (setting [8]), 2630 nM; in assay [3] (setting [9]) it was 3280 nM; in assay [4] (setting [10]) it was 34.1 nM; in assay [5] (setting [11]), greater than 10000 nM; in assay [6], greater than 10000 nM.

Values taken from patent US20260078120A1, “SUBSTITUTED PYRIDOPYRIMIDINONES” (MIRATI THERAPEUTICS, INC., priority 2022, published 2026).
